Tests used:
[1] = system: Human immunodeficiency virus 1; assay: Antiviral activity against wild-type HIV-1 IIIB infected in human MT4 cells assessed as protection against virus-induced cytopathic effect by MTT assay; assay type: functional, organism-based; conditions: Human immunodeficiency virus 1, IIIB
[2] = Cytotoxicity against human MT4 cells assessed as reduction in cell viability by MTT assay; assay type: toxicity, cell-based
[3] = Selectivity index, ratio of CC50 for human MT4 cells to EC50 for wild-type HIV-1 IIIB infected in human MT4 cells; assay type: toxicity, cell-based; conditions: read-out: Ratio CC50/EC50
[4] = system: Human immunodeficiency virus 1; assay: Antiviral activity against HIV-1 harboring RT F227L/V106A mutant infected in human MT4 cells assessed as protection against virus-induced cytopathic effect by MTT assay; assay type: functional, organism-based; conditions: Human immunodeficiency virus 1, MT4
[5] = molecular target: Human immunodeficiency virus type 1 reverse transcriptase (Human immunodeficiency virus 1, UniProt Q72547); assay: Inhibition of wild-type HIV-1 reverse transcriptase incubated for 1 hr in presence of biotin-dUTP by ELISA
[6] = system: Human immunodeficiency virus 1; assay: Antiviral activity against HIV-1 harboring RT Y181C mutant infected in human MT4 cells assessed as protection against virus-induced cytopathic effect by MTT assay; assay type: functional, organism-based; conditions: Human immunodeficiency virus 1, MT4
[7] = system: Human immunodeficiency virus 1; assay: Antiviral activity against HIV-1 harboring RT RES056 mutant infected in human MT4 cells assessed as protection against virus-induced cytopathic effect by MTT assay; assay type: functional, organism-based; conditions: Human immunodeficiency virus 1, MT4
[8] = system: Human immunodeficiency virus 1; assay: Antiviral activity against HIV-1 harboring RT E138K mutant infected in human MT4 cells assessed as protection against virus-induced cytopathic effect by MTT assay; assay type: functional, organism-based; conditions: Human immunodeficiency virus 1, MT4
[9] = system: Human immunodeficiency virus 1; assay: Antiviral activity against HIV-1 harboring RT Y188L mutant infected in human MT4 cells assessed as protection against virus-induced cytopathic effect by MTT assay; assay type: functional, organism-based; conditions: Human immunodeficiency virus 1, MT4
[10] = system: Human immunodeficiency virus 1; assay: Antiviral activity against HIV-1 harboring RT L100I mutant infected in human MT4 cells assessed as protection against virus-induced cytopathic effect by MTT assay; assay type: functional, organism-based; conditions: Human immunodeficiency virus 1, MT4
[11] = system: Human immunodeficiency virus 1; assay: Antiviral activity against HIV-1 harboring RT K103N mutant infected in human MT4 cells assessed as protection against virus-induced cytopathic effect by MTT assay; assay type: functional, organism-based; conditions: Human immunodeficiency virus 1, MT4

SMILES | EC50 [1] | CC50 [2] | selectivity ratio [3] | EC50 [4] | IC50 [5] | EC50 [6] | EC50 [7] | EC50 [8] | EC50 [9] | EC50 [10] | EC50 [11]
Cc1cc(C#N)cc(C)c1Oc1cc(-c2ccccc2)nc(NC2CCN(Cc3ccc(C(N)=O)cc3)CC2)n1 | 6.23 nM | 23100 nM | 3710 | – | – | – | – | – | – | – | –
Cc1cc(C#N)cc(C)c1Oc1cc(-c2ccoc2)nc(NC2CCN(Cc3ccc(S(C)(=O)=O)cc3)CC2)n1 | 5.56 nM | 22600 nM | 4060 | – | – | – | – | – | – | – | –
Cc1cc(C#N)cc(C)c1Oc1cc(-c2cccnc2)nc(NC2CCN(Cc3ccc(S(C)(=O)=O)cc3)CC2)n1 | 4.12 nM | 20600 nM | 5000 | 147 nM | 607 nM | 21.9 nM | 799 nM | 26.1 nM | 36.6 nM | 58.5 nM | 9.01 nM
Cc1cc(C#N)cc(C)c1Oc1cc(-c2cccnc2)nc(NC2CCN(Cc3ccc(C(N)=O)cc3)CC2)n1 | 3.61 nM | 17200 nM | 4760 | 106 nM | 428 nM | 15.3 nM | 1420 nM | 9.6 nM | 37.6 nM | 35.6 nM | 11.2 nM
Cc1cc(C#N)cc(C)c1Oc1cc(-c2ccncc2)nc(NC2CCN(Cc3ccc(S(C)(=O)=O)cc3)CC2)n1 | 4.07 nM | 26300 nM | 6460 | 107 nM | 520 nM | 50.9 nM | 2350 nM | 17.8 nM | 61.5 nM | 58.3 nM | 10.1 nM
Cc1ccnc2c1NC(=O)c1cccnc1N2C1CC1 [NEVIRAPINE] | – | > 15000 nM | > 73 | > 15000 nM | – | 9210 nM | > 15000 nM | 363 nM | > 15000 nM | 3130 nM | 8250 nM
Cc1cc(C#N)cc(C)c1Oc1cc(-c2ccccc2)nc(NC2CCN(Cc3ccc(S(C)(=O)=O)cc3)CC2)n1 | 4.68 nM | 12500 nM | 2670 | 26 nM | 231 nM | 27.7 nM | 229 nM | 32.5 nM | 38 nM | 11.4 nM | 6.82 nM
Cc1cc(C#N)cc(C)c1Oc1cc(-c2cccs2)nc(NC2CCN(Cc3ccc(S(N)(=O)=O)cc3)CC2)n1 | 10.6 nM | 24600 nM | 2320 | – | – | – | – | – | – | – | –
Cc1cc(C#N)cc(C)c1Oc1nc(Nc2ccc(C#N)cc2)nc(N)c1Br [ETRAVIRINE] | – | > 4590 nM | – | – | – | – | 32.3 nM | 14.9 nM | 30.5 nM | – | –
Cc1cc(C#N)cc(C)c1Oc1cc(-c2cccs2)nc(NC2CCN(Cc3ccc(S(C)(=O)=O)cc3)CC2)n1 | 5.53 nM | 16600 nM | 3000 | – | – | – | – | – | – | – | –
Cc1cc(C#N)cc(C)c1Oc1cc(-c2cccs2)nc(NC2CCN(Cc3ccc(C(N)=O)cc3)CC2)n1 | 4.48 nM | 19300 nM | 4310 | 63.4 nM | 299 nM | 30.5 nM | 399 nM | 36.1 nM | 44.4 nM | 20.2 nM | 6.68 nM
Cc1cc(C#N)cc(C)c1Oc1cc(-c2ccsc2)nc(NC2CCN(Cc3ccc(S(N)(=O)=O)cc3)CC2)n1 | 4.45 nM | 14800 nM | 3330 | 61.6 nM | 236 nM | 37.1 nM | 311 nM | 42.4 nM | 46.4 nM | 9.83 nM | 4.61 nM
Cc1cc(C#N)cc(C)c1Oc1cc(-c2ccncc2)nc(NC2CCN(Cc3ccc(C(N)=O)cc3)CC2)n1 | 7.39 nM | 21200 nM | 2870 | – | – | – | – | – | – | – | –
Cc1cc(C#N)cc(C)c1Oc1cc(-c2cncnc2)nc(NC2CCN(Cc3ccc(S(C)(=O)=O)cc3)CC2)n1 | 6.72 nM | 108000 nM | 16100 | – | – | – | – | – | – | – | –
Cc1cc(C#N)cc(C)c1Oc1cc(-c2ccoc2)nc(NC2CCN(Cc3ccc(C(N)=O)cc3)CC2)n1 | 5.49 nM | 19800 nM | 3610 | – | – | – | – | – | – | – | –
Cc1cc(C#N)cc(C)c1Oc1cc(-c2cncnc2)nc(NC2CCN(Cc3ccc(S(N)(=O)=O)cc3)CC2)n1 | 4.29 nM | 109000 nM | 25400 | 63.4 nM | 733 nM | 26 nM | 916 nM | 34.5 nM | 55 nM | 39.8 nM | 13 nM
Cc1cc(C#N)cc(C)c1Oc1cc(-c2ccco2)nc(NC2CCN(Cc3ccc(C(N)=O)cc3)CC2)n1 | 15.5 nM | 24000 nM | 1550 | – | – | – | – | – | – | – | –
Cc1cc(C#N)cc(C)c1Oc1cc(-c2ccoc2)nc(NC2CCN(Cc3ccc(S(N)(=O)=O)cc3)CC2)n1 | 9.36 nM | 29500 nM | 3150 | – | – | – | – | – | – | – | –
Cc1cc(C#N)cc(C)c1Oc1cc(-c2ccsc2)nc(NC2CCN(Cc3ccc(C(N)=O)cc3)CC2)n1 | 5.06 nM | 23700 nM | 4680 | – | – | – | – | – | – | – | –
Cc1cc(C#N)cc(C)c1Oc1cc(-c2cccnc2)nc(NC2CCN(Cc3ccc(S(N)(=O)=O)cc3)CC2)n1 | 4.04 nM | 18200 nM | 4500 | 105 nM | 461 nM | 26 nM | 494 nM | 21.1 nM | 36.5 nM | 31.2 nM | 13.1 nM
Cc1cc(C#N)cc(C)c1Oc1cc(-c2ccco2)nc(NC2CCN(Cc3ccc(S(N)(=O)=O)cc3)CC2)n1 | 7.85 nM | 22800 nM | 2900 | – | – | – | – | – | – | – | –
Cc1cc(C#N)cc(C)c1Oc1cc(-c2cncnc2)nc(NC2CCN(Cc3ccc(C(N)=O)cc3)CC2)n1 | 4.11 nM | 41600 nM | 10100 | 279 nM | 601 nM | 24.6 nM | 1060 nM | 29 nM | 35.3 nM | 76.8 nM | 10.2 nM
Cc1cc(C#N)cc(C)c1Oc1cc(-c2ccsc2)nc(NC2CCN(Cc3ccc(S(C)(=O)=O)cc3)CC2)n1 | 167 nM | > 219000 nM | > 1310 | – | – | – | – | – | – | – | –
Cc1cc(C#N)cc(C)c1Oc1cc(-c2ccncc2)nc(NC2CCN(Cc3ccc(S(N)(=O)=O)cc3)CC2)n1 | 3.62 nM | 18400 nM | 5080 | 72.6 nM | 507 nM | 43.4 nM | 1210 nM | 14.8 nM | 58.6 nM | 99.7 nM | 10.6 nM
Cc1cc(C#N)cc(C)c1Oc1cc(-c2ccco2)nc(NC2CCN(Cc3ccc(S(C)(=O)=O)cc3)CC2)n1 | 5.68 nM | 20700 nM | 3640 | – | – | – | – | – | – | – | –
Cc1cc(C#N)cc(C)c1Oc1cc(-c2ccccc2)nc(NC2CCN(Cc3ccc(S(N)(=O)=O)cc3)CC2)n1 | 6.01 nM | 18000 nM | 3000 | – | – | – | – | – | – | – | –
O=C1Nc2ccc(Cl)cc2[C@@](C#CC2CC2)(C(F)(F)F)O1 [EFAVIRENZ] | 3.67 nM | > 6340 nM | – | 261 nM | – | – | – | 8.82 nM | 396 nM | 28.9 nM | –
